The structures appear in SMILES notation.

The term melting point denotes the temperature, or range, at which the solid turns liquid.

Take `CNC(=O)NCc1cccc2c1S(=O)(=O)N=C2C1=C(O)C(C(C)(C)C)N(Cc2ccc(F)cc2)C1=O` (centres undefined): the melting point was more than 250 °C. The compound `C#CCNc1ccc([N+](=O)[O-])cc1[N+](=O)[O-]` gave a melting point of 151 to 152 °C. To `OCc1cc2ccccc2cc1CO` belongs 161 to 162 °C.

With `Brc1ccc2scnc2c1`, the melting point is 104 to 106 °C. Compound `O=C(N1Cc2cncnc2-c2ccc(Cl)cc2C1c1ccccc1Cl)C(F)(F)F` (centres undefined) showed a melting point of 178 to 179 °C.

The compound `Cc1cc(Cn2nc(C(F)(F)F)cc2C(F)(F)F)ccc1N1C(=O)c2cccc(F)c2C1=O` had a melting point of 158 to 159 °C.

`CCNC(=O)/C=C/CSc1nc(N)cc(Cl)n1`: the melting point is 160 to 161 °C. Take `CC(C)(C)OC(=O)CC1=CCC(=O)Nc2ccccc21`: the melting point is 136 to 138 °C. Take `CCOC(=O)C1=CC(C(=O)c2ccccc2O)=CN2CCc3c([nH]c4ccccc34)C12C(=O)OCC` (centres undefined): the melting point is 209 °C. To `CCCCCCCCCCCCCCCCNC(=O)c1cc(OCCS(C)(=O)=O)c2ccccc2c1O` belongs 107 to 109 °C. In the case of `O=C(O)c1ccccc1C(=O)c1c(-c2ccccc2)[nH]c2ccccc12`, the melting point fell in the range of 106 to 107 °C. `COc1ccc2c(c1)CCC1CCN(C)C(=O)C(CC3(C)OCCO3)=C21` (centres undefined) returned a melting point of 112 to 115 °C. With `COC(=O)C1C(=O)CCC1CC#N` (centres undefined) the figure was 49 to 50 °C; with `O=C(O)c1ccc2c(c1)C(=O)C(=Cc1ccccc1)O2`, 285 to 287 °C. `CC(=O)N(c1ncc(C(F)(F)F)cc1Cl)c1c([N+](=O)[O-])cc(C(F)(F)F)c(Cl)c1[N+](=O)[O-]`: the melting point fell in the range of 75 to 77 °C. `CCCCC[C@H]1CC[C@H](CCCOc2ccc(O)cc2)CC1` returned a melting point of 100 to 101 °C. `CCCCCCCNC(=O)N(CCC)c1cccc(-c2ccc(CCC(=O)O)cc2)c1` returned a melting point of 79 °C. The compound `CC(C)(C)OC(=O)N1C[C@@H](O)[C@H](n2ccnn2)C1` (relative stereo) registered a melting point of 91 to 93 °C. To `COC(=O)c1ccc(CN(C(CO)CO)S(=O)(=O)c2ccc(Cl)s2)cc1` belongs 134 to 135 °C. Turning to `CCN(CC)c1ccc(-c2cc(-c3ccc(C(=O)O)cc3)ccc2OCCO)cc1C(C)(C)C`, the melting point is 216 °C.

The compound `COc1ccc2c(c1)CCC1=C2CCCN1C(C)=O` displayed a melting point of 119 to 120 °C.

`CCCCCCCCOc1ccc(-c2ncc(Br)cn2)cn1` displayed a melting point of 99 to 101 °C. As to `CC1(CC(=O)O)OCCc2nc(-c3ccc(Cl)cc3)sc21` (centres undefined), the melting point was in the range of 162 to 164 °C. The compound `COc1ncc(OC)c(Cl)n1` displayed a melting point of 78 to 80 °C. As for `COCCOc1ccc(/C=C/C(=O)O)c(OCc2ccc(Cl)cc2Cl)c1`, the melting point was in the range of 176 to 178 °C.

The compound `CS(=O)(=O)OC[C@@H]1CN(c2ccc(O)cc2)C(=O)O1` gave a melting point of 282 to 284 °C. For the compound `NC(=O)c1cccc(-c2cccc3cc(Cc4cc(F)cc(C(F)(F)F)c4)sc23)c1`, the melting point lay within 147 to 148 °C. As to `COc1ccccc1-n1nnc2cc(F)c(N3C(=O)C4=C(CCCC4)C3=O)cc21`, the melting point fell in the range of 83 to 87 °C.

With `CCc1c(C(=O)C(C)C)c2ccc(-c3nnn[nH]3)cc2n1Cc1ccccc1Cl`, the melting point was in the range of 160 to 163 °C. Take `Cc1cc(Cl)ccc1Cn1nc(OC(C)C)cc1CCCOc1ncccc1CC(=O)O`: the melting point lay within 97 to 98 °C.

Compound `Nc1nc(Nc2cccc(C(F)(F)F)c2)nc(OCC(F)(F)F)n1` gave a melting point of 133 to 135 °C.

Take `CC1(C)C(=O)N(c2ccc(C#N)c(C(F)(F)F)c2)C(=O)N1CCF`: the melting point came out at 10 °C. Regarding `CC1(C)CC(=O)Nc2ccc(-c3cccc(F)c3)cc21`, the melting point lay within 190 to 192 °C. In turn, `CCOC(=O)C1=C(N)OC(C)=C(C(=O)OC)C1c1cccc([N+](=O)[O-])c1` (centres undefined) yielded a melting point of 134 °C. To `Cc1ccc(OCc2ccccc2)c(C(CCN2CC3CC3(C)C2)c2ccccc2)c1` (centres undefined) belongs 74.9 to 76 °C; to `Nn1cnc2c(Br)csc2c1=O`, 181 to 183 °C; to `CC(=O)On1c(C)csc1=S`, 100 to 101 °C. Take `CC(=O)c1c(C)[nH]c(C)c1C`: the melting point was 204 to 207 °C. To `COC(=O)c1nc(-c2nccs2)cc(NC(C)=O)c1Cl` belongs 187 to 188 °C; to `CCOC(=O)C1=C(C)NC(C=NN)=C(C(=O)OCC)C1c1ccccc1Cl` (centres undefined), 107 to 110 °C. `CCOc1cc(Cc2cnc(N)nc2N)cc2c1OC1(C=C2Br)CCC1` displayed a melting point of 213 to 214 °C. In the case of `Cc1ccc(C=CCN2CCc3nc(N)sc3CC2)cc1`, the melting point lay in the range of 126 to 130 °C. In turn, `Fc1cccc(-c2ncc(-c3cnc(-c4ccccc4)[nH]3)cn2)c1` registered a melting point of 240 °C. For the compound `O=C(Cc1ccccc1)N[C@@H](Cc1ccc(OCCc2coc(-c3ccccc3)n2)cc1)C(=O)O`, the melting point is 146 to 151 °C.

Compound `CS(=O)CCNC(=O)CC(O)(Cn1cncn1)c1ccc(Cl)cc1Cl` (centres undefined) displayed a melting point of 168 to 170 °C.

As to `CN(C)C(=O)N(C)c1cc(C(C)(C)C)on1`, the melting point was 90 to 91 °C. Turning to `O=C(O)COc1ccc2cc(-c3oc4ccccc4c3-c3ccccc3)ccc2c1-c1ccccc1`, the melting point was 202 to 203 °C.

`COc1ccc2c(c1)Cc1c-2[nH]c2ccc(OCc3ccccc3)cc12`: the melting point lay in the range of 189 to 193 °C.

Compound `NCCc1ccc(OCCC(=O)O)cc1` had a melting point of 216 °C. Take `O=C(c1ccc2nonc2c1)N1CC2C=CC1C2` (centres undefined): the melting point was in the range of 106 to 108 °C. Compound `COc1ccc2[nH]c3c(c2c1)C[C@@]1(C)C(=O)N(CCN2CCN(C)CC2)C(=O)N1[C@@H]3c1cccc(O)c1` (racemic) had a melting point of 224 to 227 °C. With `C=CCC(C#N)(C#N)Cc1c(F)c(F)c(F)c(F)c1F`, the melting point worked out at 78.2 °C. `Cc1c(NC(=O)c2cc3c(s2)C(=O)CCC3)cccc1-c1cn(C)c(=O)c(Nc2ccc(C3C(=O)N(C)CCN3C)cc2)n1` (centres undefined): the melting point is 154 to 155 °C. As for `COC(=O)CCC/C=C(/c1cc(C)c2on(C)c(=O)c2c1)c1cc(C)c2oc(=O)n(C)c2c1`, the melting point lay in the range of 152 to 154 °C. To `CC(C1CCC(Oc2ccc(F)cc2)C1)N(O)C(N)=O` (centres undefined) belongs 111 to 112 °C; to `O=S1(=O)c2ccccc2C(c2ccccc2)N1CCCl` (centres undefined), 121 °C; to `CCCCCCCCCCCCOc1ccc(CP(=O)(OC)OC)cc1`, 30 to 31 °C. `NC(=O)c1cc(F)c(NC2CCNCC2)cc1F` displayed a melting point of 188 to 190 °C. Compound `CCCN(CCC)C1Cc2cccc(C(N)=O)c2NC1=O` (centres undefined) gave a melting point of 214 to 217 °C. Regarding `O=C(O)CCNC(=O)C(=Cc1ccccc1)CS`, the melting point came out at 80 °C. Regarding `CC(C)c1nc(CCOC(=O)OCCc2nc(C(C)C)c(Sc3cc(Cl)cc(Cl)c3)n2C)n(C)c1Sc1cc(Cl)cc(Cl)c1`, the melting point was 157 to 159 °C. The compound `CC/C(=C(\c1ccc(I)cc1)c1ccc(OCCCCCS(=O)CCCC(F)(F)C(F)(F)F)cc1)c1ccccc1` (centres undefined) had a melting point of 85 to 87 °C. Turning to `NS(=O)(=O)c1ccc(Cl)cc1NC(=O)Nc1cccc(C(F)(F)F)c1`, the melting point is 163 to 165 °C. On to `N#CC(O)COc1ccccc1` (centres undefined), for which the melting point is 59 °C.

Values taken from a melting point compilation (Tetko et al.; mined from patent text by program, amines drawn as free bases though some values may be those of a salt).
